From PubChem BioAssay AID743502 (Broad Institute, 2014)
Activity calls are given as the source filed them.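 Rule for the calls: active = IC50 under 35 µM against the melanocortin-4 receptor MC4R counterscreen signal; inactive = IC50 above 35 µM.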

Tested on: HEK293 transfected MC4R, CRE-luciferase, beta-gal normalized
Test: inhibition of alpha-MSH-driven MC4R cAMP reporter – cell-based, HEK293, beta-gal normalized, luminescence, dry powder, counter-screen for LGR2 antagonist project, dose response (AID 743502)

| Structure (SMILES) | IC50 |
| --- | --- |
| C[C@H]1CCCCO[C@@H](CN(C)C(=O)Nc2cccc3ccccc23)[C@@H](C)CN([C@@H](C)CO)C(=O)c2cc(NC(=O)C3CCCCC3)ccc2O1 | > 35 µM (inactive) |
| C[C@H](CO)N1C[C@H](C)[C@H](CN(C)C(=O)Nc2ccc(F)cc2)OCCCC[C@H](C)Oc2ccc(NC(=O)C3CCCC3)cc2C1=O | > 35 µM (inactive) |
| C[C@@H]1CN([C@@H](C)CO)C(=O)c2cc(NC(=O)C3CCCCC3)ccc2O[C@@H](C)CCCCO[C@H]1CN(C)C(=O)Nc1cccc2ccccc12 | > 35 µM (inactive) |
| C[C@H](CO)N1C[C@H](C)[C@H](CN(C)C(=O)Nc2ccc(Cl)cc2)OCCCC[C@H](C)Oc2ccc(NC(=O)C3CCCCC3)cc2C1=O | > 35 µM (inactive) |
| C[C@H](CO)N1C[C@H](C)[C@H](CN(C)C(=O)Nc2ccc(F)cc2)OCCCC[C@H](C)Oc2ccc(NC(=O)C3CCCCCC3)cc2C1=O | > 35 µM (inactive) |
| C[C@H](CO)N1C[C@H](C)[C@H](CN(C)C(=O)Nc2cccc(F)c2)OCCCC[C@H](C)Oc2ccc(NC(=O)C3CCCCC3)cc2C1=O | > 35 µM (inactive) |
| C[C@H](CO)N1C[C@H](C)[C@H](CN(C)C(=O)Nc2ccccc2F)OCCCC[C@H](C)Oc2ccc(NC(=O)C3CCCCC3)cc2C1=O | > 35 µM (inactive) |
| Cc1ccc(NC(=O)N(C)C[C@@H]2OCCCC[C@H](C)Oc3ccc(NC(=O)C4CCCCC4)cc3C(=O)N([C@H](C)CO)C[C@@H]2C)cc1 | > 35 µM (inactive) |
| C[C@H](CO)N1C[C@H](C)[C@H](CN(C)C(=O)Nc2cccc3ccccc23)OCCCC[C@H](C)Oc2ccc(NC(=O)C3CCCCC3)cc2C1=O | > 35 µM (inactive) |
| C[C@H](CO)N1C[C@H](C)[C@H](CN(C)C(=O)Nc2ccc3ccccc3c2)OCCCC[C@H](C)Oc2ccc(NC(=O)C3CCCCC3)cc2C1=O | > 35 µM (inactive) |
